Converted amounts (≈) assume the structure as drawn. The source made the active and inactive calls. The calls are words filed in the database; no cut-off is given here.
Key:
Format in all cases: functional
Escherichia coli = test: Antimicrobial activity against Escherichia coli NCTC 10418 at 1 mg/ml after 24 hr by cup diffusion technique; details: for zone of inhibition at 1000 µg/mL: NCTC 10418, 24 h, read-out: DIZ
Staphylococcus aureus [1] = test: Antimicrobial activity against Staphylococcus aureus ATCC 6538p at 1 mg/ml after 24 hr by cup diffusion technique; details: for zone of inhibition at 1000 µg/mL: read-out: DIZ
Candida albicans [2] = test: Antimicrobial activity against Candida albicans ATCC 10231 at 1 mg/ml after 24 hr by cup diffusion technique; details: for zone of inhibition at 1000 µg/mL: ATCC 10231, 24 h, read-out: DIZ
Pseudomonas aeruginosa [3] = test: Antimicrobial activity against Pseudomonas aeruginosa ATCC 9027 at 1 mg/ml after 24 hr by cup diffusion technique; details: for zone of inhibition at 1000 µg/mL: ATCC 9027, 24 h, read-out: DIZ
Pseudomonas aeruginosa [4] = test: Antimicrobial activity against Pseudomonas aeruginosa ATCC 9027 after 24 hr by two-fold dilution method; details: ATCC 9027, 24 h
Staphylococcus aureus [5] = test: Antimicrobial activity against Staphylococcus aureus ATCC 6538p after 24 hr by two-fold dilution method
Candida albicans [6] = test: Antimicrobial activity against Candida albicans ATCC 10231 after 48 hr by two-fold dilution method

Molecule | zone of inhibition at 1000 µg/mL (Escherichia coli) | zone of inhibition at 1000 µg/mL (Staphylococcus aureus [1]) | zone of inhibition at 1000 µg/mL (Candida albicans [2]) | zone of inhibition at 1000 µg/mL (Pseudomonas aeruginosa [3]) | also measured
O=C(Nc1nnc(SCc2ccccc2)s1)c1cc(-c2ccccc2)nc2ccccc12 | 16 mm | 13 mm | 18 mm | 15 mm | 
O=C(O)c1cn(C2CC2)c2cc(N3CCNCC3)c(F)cc2c1=O [CIPROFLOXACIN] | 30 mm | 25 mm |  | 40 mm | MIC (Pseudomonas aeruginosa [4]): 4 µg/mL (≈ 12.1 µM); MIC (Staphylococcus aureus [5]): 2 µg/mL (≈ 6.04 µM); diameter of the inhibition zone (DIZ) (Candida albicans [2]): inactive
O=C(Nc1nnc(S(=O)(=O)Cc2ccccc2)s1)c1cc(-c2ccccc2)nc2ccccc12 | 19 mm | 20 mm | 18 mm | 14 mm | MBC (Staphylococcus aureus [5]): 500 µg/mL (≈ 1030 µM); MIC (Staphylococcus aureus [5]): 500 µg/mL (≈ 1030 µM)
c1ccc(CSc2nnc(-c3cc(-c4ccccc4)nc4ccccc34)o2)cc1 | 18 mm | 13 mm | 18 mm |  | diameter of the inhibition zone (DIZ) (Pseudomonas aeruginosa [3]): inactive
Cc1cc(C(=O)Nc2nnc(S(=O)(=O)Cc3ccccc3)s2)c2ccccc2n1 | 19 mm | 28 mm | 19 mm | 13 mm | MBC (Staphylococcus aureus [5]): > 500 µg/mL; MIC (Staphylococcus aureus [5]): 62.5 µg/mL (≈ 147 µM)
CSc1nnc(NC(=O)c2cc(-c3ccccc3)nc3ccccc23)s1 | 16 mm | 15 mm | 18 mm | 20 mm | MBC (Pseudomonas aeruginosa [4]): > 500 µg/mL; MIC (Pseudomonas aeruginosa [4]): 250 µg/mL (≈ 661 µM)
Cc1cc(-c2n[nH]c(=S)o2)c2ccccc2n1 | 18 mm | 20 mm | 18 mm | 12 mm | MBC (Staphylococcus aureus [5]): > 500 µg/mL; MIC (Staphylococcus aureus [5]): 62.5 µg/mL (≈ 257 µM)
O=S(=O)(Cc1ccccc1)c1nnc(-c2cc(-c3ccccc3)nc3ccccc23)o1 | 18 mm | 12 mm | 19 mm |  | diameter of the inhibition zone (DIZ) (Pseudomonas aeruginosa [3]): inactive
Cc1cc(C(=O)Nc2nnc(SCc3ccccc3)s2)c2ccccc2n1 | 18 mm | 15 mm | 24 mm | 17 mm | MBC (Candida albicans [6]; ATCC 10231, 48 h): 250 µg/mL (≈ 637 µM); MIC (Candida albicans [6]; ATCC 10231, 48 h): 250 µg/mL (≈ 637 µM)
CCS(=O)(=O)c1nnc(-c2cc(C)nc3ccccc23)o1 | 19 mm | 16 mm | 24 mm | 16 mm | MBC (Candida albicans [6]; ATCC 10231, 48 h): 125 µg/mL (≈ 412 µM); MIC (Candida albicans [6]; ATCC 10231, 48 h): 125 µg/mL (≈ 412 µM)
CCSc1nnc(NC(=O)c2ccnc3ccccc23)s1 | 17 mm | 15 mm | 17 mm | 14 mm | 
CCS(=O)(=O)c1nnc(NC(=O)c2ccnc3ccccc23)s1 | 19 mm | 20 mm | 19 mm | 20 mm | MBC (Pseudomonas aeruginosa [4]): 125 µg/mL (≈ 359 µM); MIC (Pseudomonas aeruginosa [4]): 125 µg/mL (≈ 359 µM); MBC (Staphylococcus aureus [5]): > 500 µg/mL; MIC (Staphylococcus aureus [5]): 125 µg/mL (≈ 359 µM)
CCSc1nnc(NC(=O)c2cc(C)nc3ccccc23)s1 | 18 mm | 17 mm | 18 mm | 14 mm | 
CCS(=O)(=O)c1nnc(-c2cc(-c3ccccc3)nc3ccccc23)o1 | 17 mm | 18 mm | 18 mm | 13 mm | 
Cc1cc(-c2nnc(S(C)(=O)=O)o2)c2ccccc2n1 | 18 mm | 19 mm | 27 mm | 13 mm | MBC (Candida albicans [6]; ATCC 10231, 48 h): 125 µg/mL (≈ 432 µM); MIC (Candida albicans [6]; ATCC 10231, 48 h): 31.2 µg/mL (≈ 108 µM)
Cc1cc(-c2nnc(SCc3ccccc3)o2)c2ccccc2n1 | 18 mm | 13 mm | 19 mm |  | diameter of the inhibition zone (DIZ) (Pseudomonas aeruginosa [3]): inactive

Molecule | zone of inhibition at 1000 µg/mL (Escherichia coli) | zone of inhibition at 1000 µg/mL (Staphylococcus aureus [1]) | zone of inhibition at 1000 µg/mL (Candida albicans [2]) | zone of inhibition at 1000 µg/mL (Pseudomonas aeruginosa [3]) | also measured
CCS(=O)(=O)c1nnc(NC(=O)c2cc(C)nc3ccccc23)s1 | 17 mm | 13 mm | 18 mm | 13 mm | 
CCSc1nnc(-c2cc(-c3ccccc3)nc3ccccc23)o1 | 18 mm |  | 19 mm | 15 mm | diameter of the inhibition zone (DIZ) (Staphylococcus aureus [1]): inactive
CS(=O)(=O)c1nnc(-c2cc(-c3ccccc3)nc3ccccc23)o1 | 18 mm | 20 mm | 18 mm | 15 mm | 
NYSTATIN |  |  |  |  | diameter of the inhibition zone (DIZ) (Escherichia coli): inactive; diameter of the inhibition zone (DIZ) (Staphylococcus aureus [1]): inactive; MIC (Candida albicans [6]): 25 µg/mL; inhibition zone (IZ) (Candida albicans [2]): 37 mm; diameter of the inhibition zone (DIZ) (Pseudomonas aeruginosa [3]): inactive
CCSc1nnc(NC(=O)c2cc(-c3ccccc3)nc3ccccc23)s1 | 19 mm | 15 mm | 18 mm | 20 mm | MBC (Pseudomonas aeruginosa [4]): 500 µg/mL (≈ 1270 µM); MIC (Pseudomonas aeruginosa [4]): 62.5 µg/mL (≈ 159 µM)
CS(=O)(=O)c1nnc(NC(=O)c2ccnc3ccccc23)s1 | 18 mm | 13 mm | 19 mm | 13 mm | 
CSc1nnc(NC(=O)c2ccnc3ccccc23)s1 | 18 mm | 17 mm | 19 mm | 15 mm | 
CS(=O)(=O)c1nnc(NC(=O)c2cc(-c3ccccc3)nc3ccccc23)s1 | 18 mm | 30 mm | 19 mm | 15 mm | MBC (Staphylococcus aureus [5]): 31.2 µg/mL (≈ 76.1 µM); MIC (Staphylococcus aureus [5]): 31.2 µg/mL (≈ 76.1 µM)
O=C(Nc1nnc(S(=O)(=O)Cc2ccccc2)s1)c1ccnc2ccccc12 | 18 mm | 27 mm | 19 mm | 20 mm | MBC (Pseudomonas aeruginosa [4]): > 500 µg/mL; MIC (Pseudomonas aeruginosa [4]): 62.5 µg/mL (≈ 152 µM); MBC (Staphylococcus aureus [5]): 500 µg/mL (≈ 1220 µM); MIC (Staphylococcus aureus [5]): 125 µg/mL (≈ 305 µM)
CCSc1nnc(-c2cc(C)nc3ccccc23)o1 | 19 mm | 15 mm | 19 mm |  | diameter of the inhibition zone (DIZ) (Pseudomonas aeruginosa [3]): inactive
CCS(=O)(=O)c1nnc(NC(=O)c2cc(-c3ccccc3)nc3ccccc23)s1 | 19 mm | 31 mm | 19 mm | 15 mm | MBC (Staphylococcus aureus [5]): 125 µg/mL (≈ 294 µM); MIC (Staphylococcus aureus [5]): 125 µg/mL (≈ 294 µM)
CSc1nnc(-c2cc(C)nc3ccccc23)o1 | 17 mm | 17 mm | 26 mm | 13 mm | MBC (Candida albicans [6]; ATCC 10231, 48 h): 125 µg/mL (≈ 486 µM); MIC (Candida albicans [6]; ATCC 10231, 48 h): 125 µg/mL (≈ 486 µM)
CSc1nnc(-c2cc(-c3ccccc3)nc3ccccc23)o1 | 18 mm | 12 mm | 18 mm | 13 mm | 
Cc1cc(-c2nnc(S(=O)(=O)Cc3ccccc3)o2)c2ccccc2n1 | 18 mm | 16 mm | 19 mm |  | diameter of the inhibition zone (DIZ) (Pseudomonas aeruginosa [3]): inactive
O=C(Nc1nnc(SCc2ccccc2)s1)c1ccnc2ccccc12 | 18 mm | 15 mm | 19 mm | 17 mm | 

From ChEMBL document CHEMBL3045678, “Synthesis of Some New Antimicrobial Thiadiazolyl and Oxadiazolyl Quinoline Derivatives” (2005)
